Data as given in a melting point compilation (Tetko et al.; mined from patent text by program, amines drawn as free bases though some values may be those of a salt).

Cc1cn(C)c2c1N(C(=O)CCN1CCN(C)CC1)c1ccccc1NC2=O showed a melting point of 187 °C. With CN1C(=O)c2ccccc2CC12c1ccccc1C(=O)N2C (stereo not given) the melting point was 202 to 203 °C. With COc1ccc2cc(CNCCNC(=O)C34CC5CC(CC(C5)C3)C4)oc2c1OC the melting point was 206 to 207 °C. Cc1scc(C2=NOCCO2)c1S(=O)(=O)NC(=O)n1nc(OC(C)C)n(C)c1=O showed a melting point of 199 °C. With CN(C)Nc1nc(Cl)nc2c1ncn2C1OC(CCl)C(O)C1O (stereo not given) the melting point was 188 to 189 °C. Compound O=C(NCc1ccn(C2=CC3=C(CC2)CCc2[nH]c(=O)c(=O)[nH]c23)c1)Nc1ccccc1 has a melting point of over 240 °C. In the case of O=P(O)(O)CNCCc1ccccc1, the melting point is reported as 148 to 150 °C. Nc1nc2cc(N)c(OC(F)(F)F)cc2s1 gave a melting point of 175 °C. CCOCc1nc(C(C)(C)O)c(C(=O)O)n1Cc1ccc(-c2ccccc2-c2nnn[nH]2)cc1 showed a melting point of 150 °C. CN1CC=C(c2cccc(C(F)(F)F)c2)n2ncc(C#N)c21 gave a melting point of 120 to 122 °C. Compound Cc1cc2c(s1)S(=O)CCc1cc(=O)n(-c3ccc(Cl)cc3)nc1-2 (stereo not given) has a melting point of 174 to 175 °C. With CCOC(=O)c1ccc(NC(=O)CCn2cnc3c(=O)[nH]cnc32)cc1 the melting point was 265 to 269 °C. Compound CC(O)=C(C#N)C(=O)c1ccc(F)cc1 has a melting point of 65 to 67 °C. CC(=O)Nc1ccc(Sc2ccc(Cl)cc2)cc1 gave a melting point of 140 to 141 °C. With COC(=O)CSc1cccc(NC(=O)NCC(=O)N(CC(=O)OC(C)(C)C)c2ccccc2C(=O)c2ccccc2)c1 the melting point was 131 to 133 °C. Compound CC(C)(C)C(=O)C=Cc1ccc2c(c1)OCO2 has a melting point of 94 to 96 °C. CN(Cc1cccc2c1CN(C1CCC(=O)NC1=O)C2=O)C(=O)Nc1ccc2ccccc2c1 (stereo not given) gave a melting point of 216 to 218 °C. In the case of CC(C)c1cccc(C(C)C)c1NC(=O)CN1C(=O)N(c2ccccc2)C2(CCCC2)C1=O, the melting point is reported as 275 to 277 °C. With CCCCCCCCCCCCCCCCC[C@@H](C[C@@H]1OC(=O)[C@H]1CC)OC(=O)[C@H](CC(C)C)NC(=O)OCc1ccccc1 the melting point was 44 to 47 °C. C=C1CC2C(CCC3(C)C2CCC3(OC(C)=O)C(=O)COC(C)=O)C2(C)CCC(=O)C=C12 (stereo not given) gave a melting point of 227 to 228 °C. For O=[N+]([O-])c1ccc2oc(-c3cccs3)nc2c1, the melting point was 186 to 188 °C. Cc1nnc(-c2ccnc(Nc3ccc(S(C)(=O)=O)cc3)c2)o1 gave a melting point of 244 to 245 °C. In the case of CCCOc1cc(C=CC(=O)N2CCN(c3ccc(NC(=N)c4cccs4)cc3)CC2)cc(OCCC)c1O, the melting point is reported as 72 to 73 °C. In the case of CCCn1nc2c(N)nc3ccccc3c2c1CCCCCl, the melting point is reported as 172 to 173 °C. COc1cc(OC)c2ccccc2c1OC(C)=O showed a melting point of 116 to 117 °C. COc1ccccc1CNc1ccc2cc(Nc3nnc(C4CC4)o3)ccc2n1 gave a melting point of 199 °C. In the case of CCCCCCCCCCCCNc1cc(C)c(C)cc1N, the melting point is reported as 53 to 54 °C. With Cc1c(Cl)cccc1S(=O)(=O)C[N+](=O)[O-] the melting point was 78 to 79 °C. CSc1ccc(C)cc1S(=O)(=O)NC(C)(C)C showed a melting point of 119 to 121 °C. Work on Cn1c(-c2ccccc2)c(C2CCC(C(=O)O)(C(=O)O)CC2)c2ccccc21 yielded a melting point of 230 °C. With CNC(=S)NCCCCc1nc[nH]c1C the melting point was 110 to 112 °C. CC(=O)Nc1ccc(C2COC(=O)O2)cn1 (stereo not given) gave a melting point of 135 to 139 °C. COCOc1ccc(-c2ncc3ncc(N4CCNCC4=O)cc3n2)cc1 gave a melting point of 200 to 202 °C. With O=C(OC1CCN(Cc2ccccc2)CC1)c1ccccc1I the melting point was 73 to 74 °C. With O=C1N(Cc2ccc(C(F)(F)F)o2)c2ccccc2C12COc1ccc(Br)cc12 (stereo not given) the melting point was 143 to 145 °C. NS(=O)(=O)Oc1ccc([N+](=O)[O-])c(C(F)(F)F)c1 gave a melting point of 95 to 97 °C. Compound COC(=O)C[C@]1(C(=O)OC)CC(c2ccc(OC)c(OC3CCCC3)c2)=NO1 has a melting point of 92 to 93 °C. CN1c2ccc(Cl)cc2NC(=S)c2cscc21 showed a melting point of 238 to 240 °C. NC(=O)N1c2ccccc2CC(=NNc2ccccc2)c2ccccc21 gave a melting point of 220 to 221 °C. With C=CCOC(=O)c1ccc(CC(=O)Nc2ccc3c(c2)C(C)(C)CCC3(C)C)cc1 the melting point was 49 to 50 °C. Work on COC(=O)c1ccc2ccn(Cc3ccc(OCc4ccc5ccccc5n4)cc3)c2c1 yielded a melting point of 125 to 126 °C. Work on CCOP(=O)(OCC)C(CCc1cc(C)nc2c(Cl)c(-c3ccccc3)nn12)P(=O)(OCC)OCC yielded a melting point of 66 to 68 °C. With CNS(=O)(=O)c1cccc(-c2cc(-c3nc(-c4ccc(C(F)(F)F)cc4)cc(C(F)(F)F)n3)ccn2)c1 the melting point was 174 °C. CC1(C)[C@@H]2CC3[C@H](C(N)=O)[C@@]3(C)C[C@@H]21 (stereo not given in full) showed a melting point of 122 °C. Compound Nc1ccc(OCc2ccccc2)c(CCCc2ccc(NC(=O)Cc3cccnc3)cc2)c1 has a melting point of 110 to 112 °C. With N#Cc1ccc(C(=O)N[C@H]2CC[C@H](CCN3CCC(c4cccc5c4CCO5)CC3)CC2)cc1 the melting point was 230 °C. N[C@@H](Cc1ccc(F)cc1)[C@H](O)c1ccc(C(F)(F)F)cc1 (racemic) gave a melting point of 130 to 131 °C. Compound O=C(O)COc1c[nH]cc(Cl)c1=O has a melting point of 253 to 255 °C. With OCc1ccc(O)c(CO)c1CNCCCCCCOCCCCCc1ccco1 the melting point was 59 to 60 °C. Compound CCCCCCCCc1ccc(OCC(=O)Cn2ccc3cc(C(=O)O)ccc32)cc1 has a melting point of 122 to 124 °C. Compound CCCNc1cccc2c1C(=O)c1cccc(NCCC)c1C2=O has a melting point of 153 to 154 °C. Compound COc1cc(O)ccc1[N+](=O)[O-] has a melting point of 142 °C. CCOC(=O)c1cn2c3c(cc(CN4CCOCC4)cc3c1=O)OC(F)(F)C2 gave a melting point of 176 to 177 °C. Work on O=C(CC1CSCCC1=O)c1ccccc1 (stereo not given) yielded a melting point of 102 to 104 °C. CC(C)(N)c1ccc(-c2nc(Nc3ccc(CCN4CCOCC4)cc3)ncc2C#N)cc1 gave a melting point of 156 °C. COc1cc(OC)c2c(=O)c(OCCOc3ccc(C(C)=C4SC(=O)NC4=O)cc3)c(-c3ccc(OC)c(OC)c3)oc2c1 gave a melting point of 205 to 206 °C. C#CCc1c(C)nc2c(NCc3ccccc3C)cccn12 gave a melting point of 126 to 128 °C. CCCCCCCCCCCCCCCCCCNC(=O)NCCN gave a melting point of 108 to 127 °C. In the case of CCOC(=O)Cn1cc(C(=O)O)c2nc3c(C)cccc3cc2c1=O, the melting point is reported as 277 to 280 °C. Cc1ccccc1-c1c(NC(=O)Nc2ccc(F)cc2F)c(=O)oc2cc3c(cc12)CCC3 showed a melting point of 223 to 224 °C. Compound CC#CCOc1ccc(/C=C/C(=O)Nc2ccccc2C(=O)O)cc1OC has a melting point of 194 to 195 °C. Compound CC1=CC(C)(C)Nc2ccc3c(c21)C(=C1SCCCS1)Oc1ccc(F)cc1-3 has a melting point of 120 to 122 °C. Cc1c(NC(=O)c2ccc(OCC3CCOC3)cc2)ccc2cc(CNCC(C)C)cnc12 (stereo not given) gave a melting point of 132 °C. CC(C)=C1C(=O)N(c2ccc(O)cc2)C(=O)/C1=C(/c1cc(C)sc1C)C(C)C showed a melting point of 136 to 138 °C. For CC(C)(C)c1cc(C(=O)c2ccccc2C(=O)O)cc(C(C)(C)C)c1O, the melting point was 173 to 174 °C. With CC(C)(C)N1CC2(CCNCC2)OC1=O the melting point was 108 to 111 °C. Cc1nn(-c2cc(OC(C)C)c(Cl)cc2F)c(C)c1N gave a melting point of 94 to 96.5 °C. Compound Oc1cc(-c2ccc(Cl)cc2Cl)n[nH]1 has a melting point of 198 °C. Work on O=C(O)C(=O)c1ccc(OCCOc2ccc(Oc3ccccc3)cc2)cc1 yielded a melting point of 124 to 126 °C. Compound ClC1=Nc2ccccc2Cn2cccc21 has a melting point of 102 to 104 °C. In the case of CCOC(=O)c1cn(C)c2nc3cc(N4CCN[C@@H](c5ccccc5)C4)c(F)cc3cc2c1=O, the melting point is reported as 221 °C. Work on CCCCOc1cc(CCC(=O)O)ccc1-c1cccc(CN(C)C(=O)c2cccc(OC)c2)c1 yielded a melting point of 80 to 82 °C. In the case of CC1(C)CC(=O)Nc2cc(C(=O)Nc3ccccc3)ccc21, the melting point is reported as 249 to 251 °C. In the case of CC(=O)Nc1cccc2c1C(=O)c1c-2n[nH]c1-c1ccc(N2CCCCC2)cc1, the melting point is reported as 291 °C. CC(=O)Nc1cccc2c1C(=O)OC2(C)C showed a melting point of 124 °C. Compound CC(=Cc1ccccc1Br)c1ccc2c(c1)C(C)(C)CCC2(C)C has a melting point of 116 to 117 °C. With COc1cc2c(cc1OC)CN(CCCc1ccc(NC(=O)c3cc(OC)c4ccccc4n3)cc1)CC2 the melting point was 123 to 125 °C. COCC(=O)[C@H](Cc1ccccc1)NC(=O)[C@H](CC(C)C)NC(=O)OCc1ccccc1 showed a melting point of 87 to 92 °C. For CC1=NCCn2cccc21, the melting point was 25 to 27 °C. CCCCc1nc(Cl)c(C=O)n1Cc1ccc(-c2ccccc2-c2nc(=O)o[nH]2)cc1 gave a melting point of 181 to 183 °C. C=CC[C@H](C(N)=O)[C@@H](CC(C)C)C(=O)NC1N=C(c2cccc(OC)c2)c2ccccc2N(C)C1=O (stereo not given in full) gave a melting point of 225 to 230 °C. Work on O=S(=O)(c1ccccc1)N1CCC(Nc2nc(OCC(F)(F)F)nc(N3CCCC3)n2)CC1 yielded a melting point of 212 to 213 °C. C=CCNc1nc(C2C(=O)Nc3ccc(Br)cc32)c2cn(CCC)nc2n1 (stereo not given) gave a melting point of 322 to 326 °C. Clc1cccc2c(CN3CC=C(c4ccc5[nH]ccc5c4)CC3)n[nH]c12 gave a melting point of 164 to 167 °C. Clc1ccc2c(c1)C(c1ccccc1)=NCc1nnc(COC(c3ccccc3)c3ccccc3)n1-2 showed a melting point of 202 to 203 °C. c1ccc(-c2ccc3[nH]c4ccc(-c5ccccc5)cc4c3c2)cc1 showed a melting point of 145 to 147 °C. Compound Oc1nc(-c2ncccn2)nc(O)c1-c1cccs1 has a melting point of 244 to 246 °C. Work on Cc1nnc(C(O)CCCCCCOc2ccc(OCc3ccccc3)cc2)o1 (stereo not given) yielded a melting point of 98 to 100 °C. CSCc1c(Cl)ccc(C(=O)c2cnoc2C2CC2)c1SC showed a melting point of 79.9 to 80.5 °C. Work on O=C(c1ccccc1)n1c2cc(O)c(O)cc2c2cc(O)c(O)cc21 yielded a melting point of 287 to 292 °C. For CCC1(CCCCl)C(=O)Nc2ccc(Cl)cc21 (stereo not given), the melting point was 105 to 107 °C. Work on COc1c(-c2ccc3cc(NS(C)(=O)=O)ccc3c2)cc(-n2ccc(=O)[nH]c2=O)cc1C(C)(C)C(=O)O yielded a melting point of over 300 °C. Work on CC(C)Cn1nc(O)nc1Cl yielded a melting point of 84 to 86 °C. In the case of COc1ccc(Oc2cc3ccc(Cl)cc3cn2)cc1, the melting point is reported as 77 °C. In the case of CCOc1cc(CF)nc(N)n1, the melting point is reported as 85 to 87 °C. For CNc1sc2c(c1C(=O)c1ccccc1)CCCC2, the melting point was 128 to 130 °C. COc1cc(C#N)c2nc(-c3ccc(OC)c(F)c3)cc(O)c2c1 gave a melting point of 218 to 220 °C. For CN1CC2Cc3ccc(Cl)cc3C(C)(O)C2C1 (stereo not given), the melting point was 125 to 130 °C. In the case of O=C(CN1CCC(CN2C(=O)c3ccccc3C2=O)CC1)c1ccc(F)cc1, the melting point is reported as 110 to 113 °C. In the case of CSCc1ccc(NC(=O)/C=C/c2cnn(C)c2-c2ccc(F)cc2)cc1, the melting point is reported as 165 to 168 °C.
